Source: ChEMBL document CHEMBL3870360, “GluN2A-Selective Pyridopyrimidinone Series of NMDAR Positive Allosteric Modulators with an Improved in Vivo Profile” (ACS Med Chem Lett, 2017)
Values after ≈ are worked out from the molar mass of the structure shown.

Tests used:
[1] = biological target: T1, Glutamate receptor 2 (Homo sapiens, UniProt P42262); assay: Positive allosteric modulation of human GluA2 receptor flip isoform assessed as increase in glutamate-induced calcium flux at 125 uM measured at time interval of 5 mins in presence of saturating glycine by calcium dye-based fluorescence assay relative to glutamate; format: single protein
[2] = biological target: T1, Glutamate receptor 2; assay: Positive allosteric modulation of human GluA2 receptor flop isoform assessed as increase in glutamate-induced calcium flux at 125 uM measured at time interval of 5 mins in presence of saturating glycine by calcium dye-based fluorescence assay relative to glutamate; format: Functional, single protein
[3] = biological target: T2, Glutamate NMDA receptor; GRIN1/GRIN2A (Homo sapiens, UniProt Q05586+Q12879); assay: Positive allosteric modulation of GluN1/GluN2A receptor (unknown origin) expressed in CHO cells assessed as increase in glutamate-induced calcium flux at 125 uM measured at time interval of 5 mins in presence of saturating glycine by calcium dye-based fluorescence assay relative to glutamate; format: cell-based
[4] = biological target: T1, Glutamate receptor 2; assay: Positive allosteric modulation of human GluA2 receptor flop isoform assessed as increase in glutamate-induced calcium flux measured at time interval of 5 mins in presence of saturating glycine by calcium dye-based fluorescence assay; format: Functional, single protein
[5] = biological target: T2, Glutamate NMDA receptor; GRIN1/GRIN2A; assay: Positive allosteric modulation of GluN1/GluN2A receptor (unknown origin) expressed in CHO cells assessed as increase in glutamate-induced calcium flux measured at time interval of 5 mins in presence of saturating glycine by calcium dye-based fluorescence assay; format: cell-based
[6] = biological target: T1, Glutamate receptor 2; assay: Positive allosteric modulation of human GluA2 receptor flip isoform assessed as increase in glutamate-induced calcium flux measured at time interval of 5 mins in presence of saturating glycine by calcium dye-based fluorescence assay; format: Functional, single protein
[7] = Unbound Cmax in mouse at 5 mg/kg, po; format: ADME, organism-based; conditions: in vivo
[8] = Kinetic solubility of the compound; format: physicochemical; conditions: read-out: Kinetic_solubility
[9] = Ratio of fCmax in mouse at 5 mg/kg, po to EC50 for GluN2A receptor (unknown origin) expressed in CHO cells co-expressing GluN1 receptor
[10] = Activity at AMPA receptor in mouse hippocampal brain slices assessed as electrical stimulation-induced excitatory post synaptic potential at -70 mV holding potential by electrophysiology method; format: ADME
[11] = Clearance in mouse blood at 0.5 mg/kg, iv; format: ADME, organism-based
[12] = Selectivity ratio of EC50 for human GluA2 flop isoform receptor to EC50 for GluN1/GluN2A receptor (unknown origin) expressed in CHO cells; format: ADME, cell-based
[13] = biological target: Ionotropic glutamate receptor NMDA 1/2C (Homo sapiens, UniProt Q05586+Q14957); assay: Positive allosteric modulation of GluN1/GluN2C receptor (unknown origin) assessed as increase in glutamate-induced calcium flux measured at time interval of 5 mins in presence of saturating glycine by calcium dye-based fluorescence assay
[14] = tested on: MDR1 (human); assay: Efflux ratio of permeability from basolateral to apical over apical to basolateral side in MDCK cells expressing human MDR1; format: ADME, cell-based, Canis lupus familiaris; conditions: dog
[15] = biological target: Ionotropic glutamate receptor NMDA 1/2D (Homo sapiens, UniProt O15399+Q05586); assay: Positive allosteric modulation of GluN1/GluN2D receptor (unknown origin) assessed as increase in glutamate-induced calcium flux measured at time interval of 5 mins in presence of saturating glycine by calcium dye-based fluorescence assay
[16] = Half life in mouse at 0.5 mg/kg, iv; format: ADME, organism-based; conditions: in vivo
[17] = biological target: Glutamate NMDA receptor; GRIN1/GRIN2B (Homo sapiens, UniProt Q05586+Q13224); assay: Positive allosteric modulation of GluN1/GluN2B receptor (unknown origin) expressed in HEK293 cells assessed as increase in glutamate-induced calcium flux at 125 uM measured at time interval of 5 mins in presence of saturating glycine by calcium dye-based fluorescence assay relative to glutamate; format: ADME, cell-based
[18] = Protein binding in human plasma; format: ADME, cell-free; conditions: read-out: PPB (converted)
[19] = Selectivity ratio of EC50 for human GluA2 flip isoform receptor to EC50 for GluN1/GluN2A receptor (unknown origin) expressed in CHO cells; format: ADME, cell-based
[20] = Selectivity ratio of EC50 for GluN1/GluN2B receptor (unknown origin) expressed in HEK293 cells to EC50 for GluN1/GluN2A receptor (unknown origin) expressed in CHO cells; format: cell-based; conditions: human
[21] = Ratio of unbound concentration in brain to plasma in mouse at 5 mg/kg, po at 1 hr; format: ADME, organism-based; conditions: brain and plasma, read-out: K(p,uu,brain)
[22] = Drug uptake in mouse brain; format: ADME, tissue-based; conditions: in vivo
[23] = Volume of distribution at steady state in mouse at 0.5 mg/kg, iv; format: ADME, organism-based; conditions: in vivo, read-out: Vdss
[24] = Oral bioavailability in mouse at 5 mg/kg; format: ADME, organism-based; conditions: in vivo
[25] = Protein binding in mouse plasma; format: ADME, cell-free; conditions: read-out: PPB (converted)
[26] = Unbound clearance in mouse blood at 0.5 mg/kg, iv; format: ADME, organism-based; conditions: in vivo
[27] = Lipophilicity, log D of the compound; format: physicochemical; conditions: octanol/water
[28] = Unbound AUClast in mouse at 5 mg/kg, po; format: ADME, organism-based; conditions: in vivo
[29] = biological target: T2, Glutamate NMDA receptor; GRIN1/GRIN2A; assay: Deactivation of GluN1/GluN2A receptor (unknown origin) expressed in CHO cells assessed as time constant for signal decay at 1 uM preincubated followed by glutamate addition in presence of saturating glycine measured after glutamate removal by electrophysiology method; format: cell-based

T1 sequence (P42262 whole entry, canonical isoform): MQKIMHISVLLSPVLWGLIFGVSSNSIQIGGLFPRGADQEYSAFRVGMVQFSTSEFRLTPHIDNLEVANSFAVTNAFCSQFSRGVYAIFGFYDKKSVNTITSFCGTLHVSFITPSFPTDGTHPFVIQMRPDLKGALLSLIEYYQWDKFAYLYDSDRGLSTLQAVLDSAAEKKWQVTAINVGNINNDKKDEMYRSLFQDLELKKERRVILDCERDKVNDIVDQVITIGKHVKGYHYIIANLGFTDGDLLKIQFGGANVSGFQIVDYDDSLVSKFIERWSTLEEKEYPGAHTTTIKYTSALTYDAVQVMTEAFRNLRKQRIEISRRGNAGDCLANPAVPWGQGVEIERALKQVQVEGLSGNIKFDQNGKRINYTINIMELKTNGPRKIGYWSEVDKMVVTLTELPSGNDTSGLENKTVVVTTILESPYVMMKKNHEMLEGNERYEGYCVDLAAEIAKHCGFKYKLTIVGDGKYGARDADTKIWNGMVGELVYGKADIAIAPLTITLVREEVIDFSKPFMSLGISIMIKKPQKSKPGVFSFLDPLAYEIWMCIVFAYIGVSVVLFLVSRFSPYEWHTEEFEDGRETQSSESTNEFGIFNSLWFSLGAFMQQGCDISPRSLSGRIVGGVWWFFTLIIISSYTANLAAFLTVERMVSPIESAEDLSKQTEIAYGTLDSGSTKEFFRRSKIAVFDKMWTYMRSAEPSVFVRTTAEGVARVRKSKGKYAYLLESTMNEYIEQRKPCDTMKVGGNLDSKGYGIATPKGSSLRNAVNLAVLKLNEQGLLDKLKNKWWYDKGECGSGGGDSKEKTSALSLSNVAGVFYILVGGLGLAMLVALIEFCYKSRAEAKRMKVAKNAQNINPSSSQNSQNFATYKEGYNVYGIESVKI
Chain of Glutamate NMDA receptor; GRIN1/GRIN2B (Q13224 whole entry, other chains not shown): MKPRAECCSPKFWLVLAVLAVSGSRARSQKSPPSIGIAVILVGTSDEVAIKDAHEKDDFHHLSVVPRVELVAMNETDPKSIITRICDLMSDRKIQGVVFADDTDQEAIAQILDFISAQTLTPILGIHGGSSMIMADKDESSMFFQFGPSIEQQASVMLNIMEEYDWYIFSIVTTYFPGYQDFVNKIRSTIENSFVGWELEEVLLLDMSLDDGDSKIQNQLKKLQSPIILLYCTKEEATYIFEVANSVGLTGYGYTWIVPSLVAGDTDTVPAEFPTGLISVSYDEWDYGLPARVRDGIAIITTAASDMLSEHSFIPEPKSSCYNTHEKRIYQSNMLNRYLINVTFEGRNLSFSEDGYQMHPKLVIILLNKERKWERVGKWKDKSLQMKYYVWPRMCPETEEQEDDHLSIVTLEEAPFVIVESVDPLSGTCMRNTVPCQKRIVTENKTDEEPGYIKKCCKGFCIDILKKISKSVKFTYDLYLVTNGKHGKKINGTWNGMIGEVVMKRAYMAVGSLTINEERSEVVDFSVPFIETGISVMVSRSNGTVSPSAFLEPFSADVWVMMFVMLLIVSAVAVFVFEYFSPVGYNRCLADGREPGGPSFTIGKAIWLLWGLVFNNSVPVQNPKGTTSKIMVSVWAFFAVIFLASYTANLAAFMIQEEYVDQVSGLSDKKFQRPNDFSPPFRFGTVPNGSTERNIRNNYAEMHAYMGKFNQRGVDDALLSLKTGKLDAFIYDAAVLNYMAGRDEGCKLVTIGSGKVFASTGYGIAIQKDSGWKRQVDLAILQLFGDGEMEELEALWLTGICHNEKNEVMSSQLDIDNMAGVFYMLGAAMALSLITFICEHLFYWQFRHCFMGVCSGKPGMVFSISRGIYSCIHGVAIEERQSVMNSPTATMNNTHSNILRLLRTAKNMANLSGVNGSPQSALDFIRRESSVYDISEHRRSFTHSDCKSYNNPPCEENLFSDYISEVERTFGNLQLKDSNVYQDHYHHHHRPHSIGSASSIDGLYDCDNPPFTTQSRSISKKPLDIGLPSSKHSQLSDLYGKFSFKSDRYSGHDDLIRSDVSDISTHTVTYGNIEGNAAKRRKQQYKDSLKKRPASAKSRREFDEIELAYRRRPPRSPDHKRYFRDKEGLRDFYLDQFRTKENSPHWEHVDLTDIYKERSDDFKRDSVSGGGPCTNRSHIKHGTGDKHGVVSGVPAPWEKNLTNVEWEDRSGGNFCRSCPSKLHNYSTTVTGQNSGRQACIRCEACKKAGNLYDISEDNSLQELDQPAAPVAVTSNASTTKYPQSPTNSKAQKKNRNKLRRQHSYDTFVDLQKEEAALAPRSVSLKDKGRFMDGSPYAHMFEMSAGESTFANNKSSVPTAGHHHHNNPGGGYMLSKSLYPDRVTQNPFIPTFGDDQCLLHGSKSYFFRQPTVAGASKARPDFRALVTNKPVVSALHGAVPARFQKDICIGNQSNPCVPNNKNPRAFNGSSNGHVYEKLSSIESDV
Chain of Ionotropic glutamate receptor NMDA 1/2D (O15399 whole entry, other chains not shown): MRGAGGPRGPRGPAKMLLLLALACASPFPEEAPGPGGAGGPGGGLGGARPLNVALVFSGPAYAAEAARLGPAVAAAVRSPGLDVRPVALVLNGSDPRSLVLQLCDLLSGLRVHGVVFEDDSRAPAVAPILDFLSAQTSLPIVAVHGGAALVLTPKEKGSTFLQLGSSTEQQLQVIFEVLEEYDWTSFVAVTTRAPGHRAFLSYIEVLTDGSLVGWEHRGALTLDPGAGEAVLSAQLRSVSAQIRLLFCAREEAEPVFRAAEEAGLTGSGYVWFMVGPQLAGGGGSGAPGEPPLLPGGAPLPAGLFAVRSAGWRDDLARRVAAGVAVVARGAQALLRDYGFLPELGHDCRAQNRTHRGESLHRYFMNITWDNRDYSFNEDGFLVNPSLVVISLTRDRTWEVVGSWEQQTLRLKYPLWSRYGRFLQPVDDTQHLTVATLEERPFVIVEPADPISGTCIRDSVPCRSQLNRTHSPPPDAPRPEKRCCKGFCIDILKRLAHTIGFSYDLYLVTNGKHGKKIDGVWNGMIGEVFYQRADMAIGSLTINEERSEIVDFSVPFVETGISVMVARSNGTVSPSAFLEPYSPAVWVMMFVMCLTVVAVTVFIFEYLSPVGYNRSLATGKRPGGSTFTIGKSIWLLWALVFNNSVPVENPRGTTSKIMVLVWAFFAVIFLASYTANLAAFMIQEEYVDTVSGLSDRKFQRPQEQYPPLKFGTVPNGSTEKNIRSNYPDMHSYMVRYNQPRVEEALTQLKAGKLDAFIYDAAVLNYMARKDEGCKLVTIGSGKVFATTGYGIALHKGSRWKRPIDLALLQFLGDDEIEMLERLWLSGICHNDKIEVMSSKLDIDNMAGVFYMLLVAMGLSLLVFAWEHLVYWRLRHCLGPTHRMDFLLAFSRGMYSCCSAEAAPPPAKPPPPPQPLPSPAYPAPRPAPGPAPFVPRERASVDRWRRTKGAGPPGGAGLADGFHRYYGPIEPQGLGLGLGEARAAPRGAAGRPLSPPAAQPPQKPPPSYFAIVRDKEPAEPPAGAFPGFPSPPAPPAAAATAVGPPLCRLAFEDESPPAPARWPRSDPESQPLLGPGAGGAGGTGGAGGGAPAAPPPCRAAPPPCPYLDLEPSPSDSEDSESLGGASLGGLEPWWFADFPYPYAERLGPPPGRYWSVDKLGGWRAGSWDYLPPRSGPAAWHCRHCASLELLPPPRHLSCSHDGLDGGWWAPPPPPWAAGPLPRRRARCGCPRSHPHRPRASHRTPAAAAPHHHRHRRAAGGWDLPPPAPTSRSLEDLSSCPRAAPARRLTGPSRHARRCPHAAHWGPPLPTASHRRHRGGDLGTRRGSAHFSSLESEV
Chain of Ionotropic glutamate receptor NMDA 1/2C (Q14957 whole entry, other chains not shown): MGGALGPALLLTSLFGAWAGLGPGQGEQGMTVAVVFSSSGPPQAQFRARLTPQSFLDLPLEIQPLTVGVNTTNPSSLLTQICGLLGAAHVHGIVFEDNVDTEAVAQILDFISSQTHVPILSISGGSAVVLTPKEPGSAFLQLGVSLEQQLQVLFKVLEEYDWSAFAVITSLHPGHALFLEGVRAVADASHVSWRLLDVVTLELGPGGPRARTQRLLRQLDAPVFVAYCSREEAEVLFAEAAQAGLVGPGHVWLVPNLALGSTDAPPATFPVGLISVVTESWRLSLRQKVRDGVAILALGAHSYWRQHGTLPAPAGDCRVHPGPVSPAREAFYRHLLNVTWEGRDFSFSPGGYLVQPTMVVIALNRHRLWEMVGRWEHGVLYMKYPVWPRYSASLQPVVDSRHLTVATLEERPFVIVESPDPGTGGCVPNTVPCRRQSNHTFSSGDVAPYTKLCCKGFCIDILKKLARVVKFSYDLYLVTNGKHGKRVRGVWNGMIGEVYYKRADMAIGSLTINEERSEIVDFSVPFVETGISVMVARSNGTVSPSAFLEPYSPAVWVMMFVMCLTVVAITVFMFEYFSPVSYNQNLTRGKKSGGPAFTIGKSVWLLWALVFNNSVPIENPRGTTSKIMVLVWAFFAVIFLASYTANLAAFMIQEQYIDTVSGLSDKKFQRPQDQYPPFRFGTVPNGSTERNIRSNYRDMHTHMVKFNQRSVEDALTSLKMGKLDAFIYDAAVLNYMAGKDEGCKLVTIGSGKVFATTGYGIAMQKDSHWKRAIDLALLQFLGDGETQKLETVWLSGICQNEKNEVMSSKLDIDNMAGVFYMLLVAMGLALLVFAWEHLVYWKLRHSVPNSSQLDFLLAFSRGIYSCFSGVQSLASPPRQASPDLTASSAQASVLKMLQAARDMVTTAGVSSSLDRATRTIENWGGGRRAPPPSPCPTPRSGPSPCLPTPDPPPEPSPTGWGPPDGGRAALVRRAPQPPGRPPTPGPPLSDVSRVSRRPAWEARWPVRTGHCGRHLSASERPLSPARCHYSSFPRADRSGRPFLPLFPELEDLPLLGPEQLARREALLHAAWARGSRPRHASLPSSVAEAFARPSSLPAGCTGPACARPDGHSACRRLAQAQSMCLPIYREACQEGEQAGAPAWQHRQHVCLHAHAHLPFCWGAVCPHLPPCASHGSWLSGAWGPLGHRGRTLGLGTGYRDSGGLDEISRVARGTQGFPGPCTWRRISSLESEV

Work on `Cc1sc2nc(Cn3nc(C(F)(F)F)cc3Cl)cc(=O)n2c1[C@@H]1C[C@H]1C#N` yielded an Emax at 125 µM [1] of 91%, an Emax at 125 µM [2] of 93% and an Emax [3] of 151%.

For `Cc1sc2nc(Cn3nc(C(F)(F)F)cc3Cl)cc(=O)n2c1-c1cncnc1`, the Emax at 125 µM [1] was 28%, the Emax at 125 µM [2] was 9% and the EC50 [4] was 1200 nM. It also gave an EC50 [5] of 1400 nM, an EC50 [6] of 9.6 µM and an Emax [3] of 88%.

With `N#C[C@@H]1C[C@H]1c1c(Cl)ccc2nc(Cn3nc(C(F)(F)F)cc3Cl)cc(=O)n12` the fCmax [7] was 0.06 µM, the Emax at 125 µM [1] was 61% and the solubility kinetic [8] was 43.5 µM (≈ 18.6 µg/mL). The Ratio [9] was 1.6, the EC50 [10] was greater than 15 µM and the clearance [11] was 10 mL/min/kg. The “Ratio EC50” value [12] was greater than 1000, the EC50 [13] was 4.7 µM and the efflux ratio [14] was 1.6. For the same molecule, the EC50 [15] was 9.5 µM, the Emax at 125 µM [2] was 67% and the half-life [16] was 480 min. It also gave an Emax at 125 µM [17] of 96%, a fraction unbound [18] of 0.056 and an EC50 [4] of 49000 nM. For the same molecule, the “Ratio EC50” value [19] was greater than 1000, the “Ratio EC50” value [20] was greater than 100 and the Kp uu at 1 h [21] was 0.67. It also gave an EC50 [6] of 45 µM, a Drug uptake [22] of 94.9% and a Vd [23] of 7 L/kg. The bioavailability [24] was 37%, the fraction unbound [25] was 0.076 and the CL free [26] was 132 mL/min/kg. For the same molecule, the logD [27] was 1.8 and the fAUClast [28] was 0.53 µM·h.

`N#C[C@@H]1C[C@H]1c1cc(C(F)(F)F)cc2nc(Cn3nc(C(F)(F)F)cc3Cl)cc(=O)n12` gave an Emax at 125 µM [1] of 27%, an efflux ratio [14] of 2.1 and an Emax at 125 µM [2] of 77%. For the same molecule, the EC50 [4] was 16000 nM, the EC50 [6] was 27 µM and the Emax [3] was 142%.

In the case of `Cc1ccc2nc(Cn3nc(C(F)(F)F)cc3Cl)cc(=O)n2c1[C@@H]1C[C@H]1C#N`, the Emax at 125 µM [1] is reported as 66%, the efflux ratio [14] is reported as 2 and the Emax at 125 µM [2] is reported as 63%. It also gave an EC50 [4] of 31000 nM, an EC50 [5] of 41 nM and an EC50 [6] of 67 µM. The Emax [3] was 137%.

`CCNC(=O)c1c(C)sc2nc(Cn3nc(C(F)(F)F)cc3Cl)cc(=O)n12` gave an Emax at 125 µM [1] of 8%, an Emax at 125 µM [2] of 16% and an Emax [3] of 120%.

For `COc1cc([C@@H]2C[C@H]2C#N)n2c(=O)cc(Cn3nc(C(F)(F)F)cc3Cl)nc2c1`, the Emax at 125 µM [1] was 51%, the efflux ratio [14] was 2.2 and the Emax at 125 µM [2] was 67%. For the same molecule, the EC50 [4] was 2200 nM, the EC50 [5] was 130 nM and the EC50 [6] was 6.7 µM. The Emax [3] was 140%.

Work on `Cc1sc2nc(Cn3nc(C(F)(F)F)cc3Cl)cc(=O)n2c1C1CC1` yielded an Emax at 125 µM [1] of 51%, an Emax at 125 µM [2] of 32% and an EC50 [5] of 270 nM. It also gave an Emax [3] of 116%.

Molecule `Cc1cc([C@@H]2C[C@H]2C#N)n2c(=O)cc(Cn3nc(C(F)(F)F)cc3Cl)nc2c1` has an Emax at 125 µM [1] of 86%, an efflux ratio [14] of 2.2 and an Emax at 125 µM [2] of 83%. The EC50 [4] was 210 nM, the EC50 [6] was 3.1 µM and the Emax [3] was 144%.

With `Cc1ccc2nc(Cn3nc(C(F)(F)F)cc3Cl)cc(=O)n2c1C1CC1` the Emax at 125 µM [1] was 7%, the Emax at 125 µM [2] was 3% and the EC50 [4] was 2500 nM. For the same molecule, the EC50 [5] was 280 nM, the EC50 [6] was 1.3 µM and the Emax [3] was 107%.

For `CCNC(=O)c1c(C)ccc2nc(Cn3nc(C(F)(F)F)cc3Cl)cc(=O)n12`, the Emax at 125 µM [1] was 1%, the Emax at 125 µM [2] was -1% and the EC50 [5] was 2500 nM. The Emax [3] was 129%.

In the case of `N#C[C@@H]1C[C@H]1c1cccc2nc(Cn3nc(C(F)(F)F)cc3Cl)cc(=O)n12`, the Emax at 125 µM [1] is reported as 90%, the Emax at 125 µM [2] is reported as 90% and the EC50 [4] is reported as 410 nM. It also gave an EC50 [5] of 24 nM, an EC50 [6] of 0.81 µM and an Emax [3] of 148%.

`N#C[C@@H]1C[C@H]1c1c(C(F)(F)F)sc2nc(Cn3nc(C(F)(F)F)cc3Cl)cc(=O)n12` showed an EC50 [10] of 5.7 µM and a TIME [29] of 0.000584 h.

Molecule `N#C[C@@H]1C[C@H]1c1c(F)ccc2nc(Cn3nc(C(F)(F)F)cc3Cl)cc(=O)n12` has an Emax at 125 µM [1] of 67%, an efflux ratio [14] of 1.5 and an Emax at 125 µM [2] of 69%. For the same molecule, the EC50 [4] was 460 nM, the EC50 [5] was 21 nM and the EC50 [6] was 3.1 µM. The Emax [3] was 151%.

`Cc1ccc2nc(Cn3nc(C(F)(F)F)cc3Cl)cc(=O)n2c1-c1cncnc1` gave an Emax at 125 µM [1] of 5%, an Emax at 125 µM [2] of 3% and an EC50 [5] of 9800 nM. It also gave an Emax [3] of 84%.

With `COc1ccc2nc(Cn3nc(C(F)(F)F)cc3Cl)cc(=O)n2c1[C@@H]1C[C@H]1C#N` the Emax at 125 µM [1] was 28%, the efflux ratio [14] was 3.2 and the Emax at 125 µM [2] was 15%. For the same molecule, the EC50 [5] was 80 nM and the Emax [3] was 120%.
